Source: patent publication EP3943081A1, “OPTIC NEUROPATHY TREATMENT AND REDUCTION OF STEROID- INDUCED OXIDATIVE STRESS WITH STABILIZED POLYUNSATURATED SUBSTANCES” (Retrotope, Inc., priority 2014, dated 2015)

Experiments:
[1] = tested on: Dhcr7-deficient Neuro2a neuroblastoma cells; assay: Oxysterol levels in Dhcr7-deficient Neuro2a neuroblastoma cells treated with fatty acid; type: cell-based; conditions: for levels of oxysterols associated with free radical induced oxidation: 20 micromolar, Dhcr7 expression depleted by RNA interference, 7-DHC accumulates
Description: Dhcr7-deficient Neuro2a neuroblastoma cells were treated with D2-linoleic acid, and non-deuterated linoleic acid ("Lin") was used in a control experiment. The level of Dhcr7 gene expression was depleted by RNA interference, leading to accumulation of 7-DHC in the cells. 7-DHC is 1-2 orders of magnitude more oxidizeable than linoleic acid, and so can easily initiate lipid peroxidation (See Yin et al., "Free Radical Lipid Peroxidation: Mechanisms and Analysis," Chem Rev. (2011), 111(10), 5944-5972).

[2] = tested on: Q-less (coq2, coq3, and coq5) yeast mutants; conditions: cited from earlier work; for sensitivity of Q-less yeast to treatment: compared with the wild-type parental strain
[3] = tested on: wild-type (the parental genetic background is strain W303-1B) cells; conditions: following a four hour treatment; 240 min; cited from earlier work

[2H]C([2H])(/C=C\CCCCC)/C=C\CCCCCCCC(=O)O [D2-Lin, 11,11-Dideutero-cis,cis-9,12-Octadecadienoic acid]
oxidative stress ([1]; 20 micromolar (same concentration as Lin), judged by oxysterol levels): did not induce oxidative stress
levels of oxysterols associated with free radical induced oxidation [1]: low levels

CCCCC/C=C\C/C=C\CCCCCCCC(=O)O [Lin, cis, cis-9,12-Octadecadienoic acid]
levels of oxysterols associated with free radical induced oxidation [1]: substantially increased

CCCCC/C=C\C/C=C\C/C=C\C/C=C\CCCC(=O)O [arachidonic acid]
sensitivity of Q-less yeast to treatment [2]: hypersensitive

CC/C=C\C/C=C\C/C=C\CCCCCCCC(=O)O [linolenic acid, cis,cis,cis-9,12,15-Octadecatrienoic acid]
viable Q-less yeast mutants ([2]; following a four hour treatment, 240 min): Less than 1%
viable wild-type cells [3]: 70%

CCCCCCCC/C=C\CCCCCCCC(=O)O [oleic acid]
sensitivity of Q-less yeast to treatment [2]: behave the same as the wild-type parental strain
